{"source": "patent US12083106B2", "about": "“Methods of using a pharmaceutical composition containing pirfenidone in sustained-release tablet form” (Excalibur Pharmaceuticals, Inc., priority 2011, dated 2024)", "key": {"TGF-β1 [1]": {"tested_on": "TGF-β1", "experiment": "TGF-β1 serum levels in female rats with silicone implants in mammary glands (ELISA)", "type": "in vivo", "conditions": "daily oral regimen during 21 days; extended release formula before conversion into tablets", "description": "(§1) TGF-β1 serum levels determination in female rats submitted to the placement of silicone implants in mammary glands for inducing contracture development are shown in FIG. 5. The animals were administered a daily regimen of oral Pirfenidone during 21 days. […] TGF-β1 levels were determined through a commercial ELISA kit."}, "TNF-α [2]": {"tested_on": "TNF-α", "experiment": "TNF-α serum levels in female rats with silicone implants in mammary glands (ELISA)", "type": "in vivo", "conditions": "daily oral regimen during 21 days; extended release formula before conversion into tablets", "description": "as §1, with “TNF-α” for “TGF-β1”, “6.” for “5.”, “animals” for “animals were”"}, "hepatic fibrosis": {"tested_on": "hepatic fibrosis", "conditions": "patients with hepatic fibrosis; expanded study; cited from earlier work"}, "[3]": {"tested_on": "progressive renal disease", "conditions": "animal models; cited from earlier work"}, "TNF-α [4]": {"tested_on": "TNF-α", "experiment": "TNF-α serum levels in animals with chronic hepatic damage by CCl4 (ELISA)", "type": "in vivo", "conditions": "treated vs not treated"}, "TGF-β1 [5]": {"tested_on": "TGF-β1", "experiment": "TGF-β1 serum levels in animals with chronic hepatic damage by CCl4 (ELISA)", "type": "in vivo", "conditions": "treated vs not treated"}, "[6]": {"conditions": "renal failure patients treated with hemodialysis; cited from earlier work"}, "[7]": {"tested_on": "chronic renal failure secondary to primary nephropathy", "experiment": "Prospective, open label, 12-month clinical trial in patients with primary nephropathy with renal damage", "type": "in vivo, human", "conditions": "oral sustained-release tablets every 12 hours, 12 months", "description": "The present study is a prospective, open label, 12-month clinical trial including 30 patients with primary nephropathy, with renal damage (stages 1 to 4 of the KDIGO Classification) between 10 and 40 years of age, from both sexes. […] Said evaluation phase was useful so that the patient could become his/her own control. All of the patients received oral Pirfenidone (in sustained-release tablet form) administered every 12 hours containing 2400 mg/1.73 m^2 BSA, equivalent to […].; besides, they also received a conventional treatment appropriate for primary nephropathy and CRF, such as antihypertensives, alpha-ketoanalogues, phosphate chelating agents, angiotensin II antagonist, low-protein diet, etc. […] Two Doppler ultrasonographic studies were performed on each patient at the beginning of the study and at 12 months. Drug adverse events were evaluated and the loss of renal function and loss percentage were quantified. The use of Pirfenidone in renal function was monitored through cystatin C, plasma reciprocal creatinine and creatinine clearance in 24-hour urine collection."}, "[8]": {"experiment": "Pirfenidone bioavailability study in healthy volunteers", "type": "in vivo, human", "conditions": "600 mg sustained-release tablet form; 11 healthy volunteers", "description": "Pirfenidone Bioavailability Study in Healthy Volunteers According to the Pharmacopoeia Standards\nSaid analyses were performed by a laboratory authorized by the Mexican Health Secretariat (Data not shown).\nMaximum concentration data evidenced that the bioavailability is extrapolated to other lower concentrations, i.e., 100, 200 or 400 mg."}, "[9]": {"tested_on": "breast capsular contracture", "experiment": "Pilot open prospective study in patients with breast capsular contracture (Baker scale, echosonography)", "type": "in vivo, human", "conditions": "for Implant fibrous capsule ILQ thickness, mean: Inner Lower Quadrant; for Implant fibrous capsule IUQ thickness, mean: Inner Upper Quadrant; for Implant fibrous capsule OLQ thickness, mean: Outer Lower Quadrant; for Implant fibrous capsule OUQ thickness, mean: Outer Upper Quadrant", "description": "It is a pilot, open, prospective, longitudinal and analytical essay in which 17 patients diagnosed with an important breast capsular contracture (Grade III and Grade IV, Baker Scale) were treated with Pirfenidone 600 mg administered orally as sustained-release tablets three times per day (every 8 hours) during six months. A blood sample was taken from each patient in order to determine the genetic markers (TGF-β1). […], three Breast echosonographies were made, one at the beginning, the other at the end of the treatment (6 months) and the last one 6 months after the suspension of Pirfenidone treatment (12 months). Two parameters were evaluated: antero-posterior diameter and capsular thickness in all its quadrants (contrasting thickness measurements with the radiological parameters established by Tomas Stavros, 2006 and the radiological clinical correlation of thickness vs Baker Scale established by Alon Zahavi M D, 2006 for the diagnosis of Capsular Contracture). Free liquid in the capsule was looked for, as well as retraction or rupture signs through 5-12 MHz linear or curve transductors. During 12 months, a Breast Clinical Evaluation was also conducted on a monthly basis using Baker Classification. Deformation, texture through palpation and sensitivity were evaluated. A registration of each evaluation was made with digital photographs. The clinical and radiological changes of each breast were evaluated by a plastic surgeon and a qualified radiologist. The statistical analysis included 20 cases, taking into account that 3 patients presented bilateral capsular contracture of different grade in each breast; a total of 20 breasts were analyzed. Finally, the statistical analysis of the ordinal scale variables was conducted with means and ranges; and for the contrasts, Wilcoxon matched-pairs signed-ranks and Chi^2 were used. With regard to the Ratio Interval variables, the mean and standard deviation were used; and for the contrast, Student's t test for paired samples was used in which a case is compared against another case."}, "[10]": {"tested_on": "fibrosis in the mammary capsule", "conditions": "administered orally; female rats with silicone implants; cited from earlier work"}, "[11]": {"tested_on": "focal segmental glomerulosclerosis", "conditions": "nephrotic syndrome and focal segmental glomerulosclerosis; cited from earlier work"}, "[12]": {"conditions": "Initial (before treatment), 20 cases"}}, "data": [{"smiles": "Cc1ccc(=O)n(-c2ccccc2)c1", "note": "[Pirfenidone, 5-methyl-1-phenyl-2-(1H)-pyridone]", "values": [{"measurement": "action on TGF-β production (TGF-β1 serum levels, FIG. 5)", "setting": "TGF-β1 [1]", "result": "extremely potent and selective inhibiting action"}, {"measurement": "action on TNF-α (TNF-α serum levels, FIG. 6)", "setting": "TNF-α [2]", "result": "extremely potent and selective TNF-α inhibiting action"}, {"measurement": "effects evidenced through hepatic biopsy", "setting": "hepatic fibrosis", "result": "beneficial effects"}, {"measurement": "TGF-β expression", "setting": "[3]", "result": "reduces TGF-β expression"}, {"measurement": "development of progressive renal disease", "setting": "[3]", "result": "Can prevent the development of progressive renal disease"}, {"measurement": "growth, development and toxic effects in treated animals", "setting": "[3]", "result": "grew and developed normally and without toxic effects"}, {"measurement": "proteinuria levels", "setting": "[3]", "result": "Reduces proteinuria levels"}, {"measurement": "renal function / collagen accumulation in the renal cortex", "setting": "[3]", "result": "Improves renal function reducing collagen accumulation in the renal cortex"}, {"measurement": "urea nitrogen and serum creatinine levels", "setting": "[3]", "result": "Reduces urea nitrogen and serum creatinine levels"}, {"measurement": "TNF-α serum level (FIG. 6)", "setting": "TNF-α [4]", "result": "lower TNF-α serum level"}, {"measurement": "TGF-β1 serum level (FIG. 5)", "setting": "TGF-β1 [5]", "result": "lower TGF-β1 serum level"}, {"measurement": "need to adjust dose in patients with renal damage (pharmacokinetics)", "setting": "[6]", "result": "not necessary to adjust the pirfenidone dose"}, {"measurement": "tolerability in patients with Terminal Chronic Renal Failure (TCRF)", "setting": "[6]", "result": "well tolerated"}, {"measurement": "renal damage progression rate", "setting": "[7]; 2400 mg/1.73 m^2 BSA, phases 1-4 KDIGO", "result": "influenced positively"}, {"measurement": "drug side-effects in patients with primary nephropathy", "setting": "[7]", "result": "limited to a minimum percentage of patients and disappeared rapidly"}, {"measurement": "effect on proteinuria", "setting": "[7]", "result": "beneficial effect"}, {"measurement": "histological damage to the affected kidneys (comparative ultrasonographic changes, beginning vs end of treatment)", "setting": "[7]", "result": "detains the histological damage"}, {"measurement": "time till which bioavailability is prolonged", "setting": "[8]", "result": 12, "unit": "h"}, {"measurement": "change of breast capsular contracture grade, all cases", "setting": "[9]; 600 mg SR tablets orally three times per day, six months, 20 cases", "result": "reduction of breast capsular contracture grade"}, {"measurement": "cases with relapse of capsular contracture (WCSECC to grade III)", "setting": "[9]; 6-month follow up after Pirfenidone discontinuation, 1 case grade IV, use of steroids and excessive exercise", "result": 5, "unit": "%"}, {"measurement": "number of cases WCSECC (Without Clinical or Sonographic Evidence of Capsular Contracture)", "setting": "[9]; 6 Months (end of treatment, 600 mg SR tablets three times per day), 20 cases", "result": 10, "unit": "cases"}, {"measurement": "number of cases with contracture grade I (Baker Scale)", "setting": "[9]; 6 Months, 20 cases", "result": 5, "unit": "cases"}, {"measurement": "number of cases with contracture grade III (Baker Scale)", "setting": "[9]; 6 Months, 20 cases", "result": 5, "unit": "cases"}, {"measurement": "patients with side effects (stomach aches, fatigue, skin dermatosis, photosensitivity)", "setting": "[9]; 6 of 17 patients", "result": 35, "unit": "%"}, {"measurement": "mean duration of side effects", "setting": "[9]; 6 patients with side effects", "result": 10.8, "unit": "days"}, {"measurement": "BAKER SCALE Mean", "setting": "[9]; 12-month follow-up, n = 20, P 0.0001 vs beginning", "result": 0.5}, {"measurement": "number of cases WCSECC", "setting": "[9]; 12 months (6 months after suspension of treatment), 20 cases", "result": 14, "unit": "cases"}, {"measurement": "number of cases with contracture grade II (Baker Scale)", "setting": "[9]; 12 months, 20 cases", "result": 1, "unit": "cases"}, {"measurement": "number of cases with contracture grade III (Baker Scale)", "setting": "[9]; 12 months, 20 cases", "result": 5, "unit": "cases"}, {"measurement": "BAKER SCALE Mean (Range)", "setting": "[9]; Beginning of the study, n = 20", "result": "4 (3-4)"}, {"measurement": "Implant fibrous capsule ILQ thickness, mean", "setting": "[9]; Beginning", "result": 1.86, "unit": "centimeters"}, {"measurement": "Implant fibrous capsule IUQ thickness, mean", "setting": "[9]; Beginning", "result": 1.6, "unit": "centimeters"}, {"measurement": "Implant fibrous capsule OLQ thickness, mean", "setting": "[9]; Beginning", "result": 1.775, "unit": "centimeters"}, {"measurement": "Implant fibrous capsule OUQ thickness, mean", "setting": "[9]; Beginning", "result": 1.505, "unit": "centimeters"}, {"measurement": "Implant fibrous capsule ILQ thickness, mean", "setting": "[9]; End", "result": 1.115, "unit": "centimeters"}, {"measurement": "Implant fibrous capsule IUQ thickness, mean", "setting": "[9]; End", "result": 1.19, "unit": "centimeters"}, {"measurement": "Implant fibrous capsule OLQ thickness, mean", "setting": "[9]; End", "result": 1.185, "unit": "centimeters"}, {"measurement": "Implant fibrous capsule OUQ thickness, mean", "setting": "[9]; End", "result": 1.18, "unit": "centimeters"}, {"measurement": "number of cases with contracture grade III (Baker Scale)", "setting": "[9]; [12]", "result": 9, "unit": "cases"}, {"measurement": "number of cases with contracture grade IV (Baker Scale)", "setting": "[9]; [12]", "result": 11, "unit": "cases"}, {"measurement": "breast capsular contracture evolution, Baker scale (FIG. 1)", "setting": "[9]; all the cases, after PFD administration", "result": "important improvement"}, {"measurement": "Initial AP Diameter of the breast implant, mean", "setting": "[9]; echographically measured at the beginning (before treatment)", "result": 7.57, "unit": "centimeters"}, {"measurement": "AP Diameter at 12 months, mean", "setting": "[9]; echographically measured, P = N.S. vs 6 months", "result": 6.085, "unit": "centimeters"}, {"measurement": "AP Diameter at 6 months, mean", "setting": "[9]; echographically measured, P ≤ .001 vs beginning", "result": 6.425, "unit": "centimeters"}, {"measurement": "cases with gradual reduction of antero-posterior diameter (APD) and capsule thickness", "setting": "[9]; echographies at 6 and 12 months, 19 cases", "result": 95, "unit": "%"}, {"measurement": "cases showing retraction data and light subcapsular liquid", "setting": "[9]; end of the study, group that passed from grade IV to grade III, two cases", "result": 10, "unit": "%"}, {"measurement": "contracture state of left breast, single patient (FIG. 2)", "setting": "[9]; initially grade III, after six-month PFD administration", "result": "Not Detectable by Ultrasound or Clinical Examination"}, {"measurement": "contracture state of both breasts, single patient (FIG. 3)", "setting": "[9]; initially grade IV, end of the protocol", "result": "Capsular Contracture Not Detectable by Ultrasound or Clinical Examination"}, {"measurement": "cases reduced from grade IV to grade II", "setting": "[9]; of 20 cases (1 case)", "result": 5, "unit": "%"}, {"measurement": "cases initially grade IV that concluded WCSECC", "setting": "[9]; of 20 cases (5 cases)", "result": 25, "unit": "%"}, {"measurement": "cases reduced from grade IV to grade III", "setting": "[9]; of 20 cases (5 cases)", "result": 25, "unit": "%"}, {"measurement": "cases initially grade III that concluded WCSECC", "setting": "[9]; of 20 cases (9 cases)", "result": 45, "unit": "%"}, {"measurement": "cases concluded Without Clinical or Sonographic Evidence of Capsular Contracture (WCSECC)", "setting": "[9]; of 20 cases (n=14)", "result": 70, "unit": "%"}, {"measurement": "cases of relapse (FIG. 1)", "setting": "[9]; six-month follow-up", "result": "one"}, {"measurement": "relapse, single patient (FIG. 2)", "setting": "[9]; six-month follow-up", "result": "lack of relapse"}, {"measurement": "development of fibrosis in the mammary capsule", "setting": "[10]", "result": "prevents the development of the characteristic fibrosis"}, {"measurement": "delay of renal function impairment", "setting": "[11]", "result": "favorable results"}]}]}
